Patent US20050192279A1, “Pyridazinones as antagonists of alpha4 integrins” (priority 2004, published 2005)

Assays:
α4β1 = biological target: T1, α4β1 (Homo sapiens, UniProt P05556+P13612); test: Ramos Cell Adhesion Assay (α4β1 Mediated Adhesion/VCAM-1); format: cell-based; conditions: Ramos cell adhesion to hVCAM-1; read-out: α4β1 IC50
T1 construct: Ramos Cell Adhesion Assay (α4β1 Mediated Adhesion/VCAM-1); endogenous in cells; host or cells: Ramos cells
How it was run: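 Plates coated overnight at 4° C with recombinant hVCAM-1 at 4.0 μg/mL, pH 9.0, then blocked in PBS/1% BSA. Calcein AM-labeled Ramos cells added with compounds and left to adhere 1 h at room temperature; after washing, cells lysed in 1 M Tris pH 8.0/1% SDS.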

human α4β7 integrin = biological target: T2, human α4β7 integrin (Homo sapiens, UniProt P13612+P26010); test: α4β7-K562 Cell Adhesion Assay (α4β7 Mediated Adhesion/MAdCAM-1); format: cell-based; conditions: α4β7-K562 cell adhesion to hMAdCAM-1; read-out: α4β7 IC50
T2 construct: expressed in transfected cells; host or cells: K562 cells, stably transfected
T2 sequence (P13612 34-1032): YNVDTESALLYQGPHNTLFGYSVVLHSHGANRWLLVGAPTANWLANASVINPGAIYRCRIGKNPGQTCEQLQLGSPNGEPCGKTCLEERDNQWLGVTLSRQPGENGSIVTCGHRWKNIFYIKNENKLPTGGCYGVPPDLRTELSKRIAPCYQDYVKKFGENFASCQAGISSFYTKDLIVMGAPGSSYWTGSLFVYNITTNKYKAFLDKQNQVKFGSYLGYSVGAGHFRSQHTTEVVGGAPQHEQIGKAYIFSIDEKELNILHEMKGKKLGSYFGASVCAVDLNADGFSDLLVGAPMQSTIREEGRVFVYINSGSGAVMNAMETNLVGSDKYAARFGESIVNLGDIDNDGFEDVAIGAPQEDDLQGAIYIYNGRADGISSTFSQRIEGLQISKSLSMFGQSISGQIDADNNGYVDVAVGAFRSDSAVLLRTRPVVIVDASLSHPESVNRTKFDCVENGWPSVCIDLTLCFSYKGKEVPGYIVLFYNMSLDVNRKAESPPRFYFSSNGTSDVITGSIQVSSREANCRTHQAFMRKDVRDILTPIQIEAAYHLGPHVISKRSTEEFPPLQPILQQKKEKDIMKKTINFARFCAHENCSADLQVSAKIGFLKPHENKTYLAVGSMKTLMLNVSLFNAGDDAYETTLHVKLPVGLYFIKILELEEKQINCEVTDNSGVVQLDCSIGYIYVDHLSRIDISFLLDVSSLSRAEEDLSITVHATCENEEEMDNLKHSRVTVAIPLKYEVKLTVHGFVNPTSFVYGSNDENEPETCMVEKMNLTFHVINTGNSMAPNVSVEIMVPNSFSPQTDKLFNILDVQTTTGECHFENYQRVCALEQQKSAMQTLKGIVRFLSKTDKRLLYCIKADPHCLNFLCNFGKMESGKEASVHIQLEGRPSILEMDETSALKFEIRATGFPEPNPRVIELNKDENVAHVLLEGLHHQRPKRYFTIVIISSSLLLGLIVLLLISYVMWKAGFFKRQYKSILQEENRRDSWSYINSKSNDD
T2 sequence (P26010 20-798): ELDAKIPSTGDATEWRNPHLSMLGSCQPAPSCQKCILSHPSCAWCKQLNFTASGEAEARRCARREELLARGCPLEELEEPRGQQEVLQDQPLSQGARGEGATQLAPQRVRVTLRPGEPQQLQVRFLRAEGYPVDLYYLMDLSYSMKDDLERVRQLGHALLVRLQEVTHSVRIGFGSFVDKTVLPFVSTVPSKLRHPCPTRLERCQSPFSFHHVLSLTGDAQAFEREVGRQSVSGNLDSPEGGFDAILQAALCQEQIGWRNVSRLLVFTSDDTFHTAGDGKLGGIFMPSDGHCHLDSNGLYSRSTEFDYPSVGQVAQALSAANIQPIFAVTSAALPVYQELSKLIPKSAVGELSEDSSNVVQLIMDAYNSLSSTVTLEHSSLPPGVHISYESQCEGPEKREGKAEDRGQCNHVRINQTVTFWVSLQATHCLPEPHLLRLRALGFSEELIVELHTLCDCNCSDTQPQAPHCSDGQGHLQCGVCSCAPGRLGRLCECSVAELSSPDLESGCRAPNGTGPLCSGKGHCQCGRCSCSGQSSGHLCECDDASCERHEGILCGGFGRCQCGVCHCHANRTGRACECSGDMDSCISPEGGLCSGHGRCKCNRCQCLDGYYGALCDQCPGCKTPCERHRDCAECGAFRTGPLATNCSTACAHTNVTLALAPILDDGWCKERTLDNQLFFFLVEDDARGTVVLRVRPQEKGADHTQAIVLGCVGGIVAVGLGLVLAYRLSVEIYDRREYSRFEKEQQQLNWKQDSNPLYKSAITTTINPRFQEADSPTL
How it was run: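 Anti-FLAG plates coated 1 h at 4° C with FLAG-hMAdCAM-1 in PBS pH 7.4, 1% BSA, 1 mM Mn2+. Stably transfected K562 cells expressing human α4β7, labelled with CFDA-SE, adhered with compound 1 h at room temperature. After four washes, bound cells lysed in 0.1 M NaOH for fluorescence read-out.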

T1 sequence (P05556 21-798, one chain of several): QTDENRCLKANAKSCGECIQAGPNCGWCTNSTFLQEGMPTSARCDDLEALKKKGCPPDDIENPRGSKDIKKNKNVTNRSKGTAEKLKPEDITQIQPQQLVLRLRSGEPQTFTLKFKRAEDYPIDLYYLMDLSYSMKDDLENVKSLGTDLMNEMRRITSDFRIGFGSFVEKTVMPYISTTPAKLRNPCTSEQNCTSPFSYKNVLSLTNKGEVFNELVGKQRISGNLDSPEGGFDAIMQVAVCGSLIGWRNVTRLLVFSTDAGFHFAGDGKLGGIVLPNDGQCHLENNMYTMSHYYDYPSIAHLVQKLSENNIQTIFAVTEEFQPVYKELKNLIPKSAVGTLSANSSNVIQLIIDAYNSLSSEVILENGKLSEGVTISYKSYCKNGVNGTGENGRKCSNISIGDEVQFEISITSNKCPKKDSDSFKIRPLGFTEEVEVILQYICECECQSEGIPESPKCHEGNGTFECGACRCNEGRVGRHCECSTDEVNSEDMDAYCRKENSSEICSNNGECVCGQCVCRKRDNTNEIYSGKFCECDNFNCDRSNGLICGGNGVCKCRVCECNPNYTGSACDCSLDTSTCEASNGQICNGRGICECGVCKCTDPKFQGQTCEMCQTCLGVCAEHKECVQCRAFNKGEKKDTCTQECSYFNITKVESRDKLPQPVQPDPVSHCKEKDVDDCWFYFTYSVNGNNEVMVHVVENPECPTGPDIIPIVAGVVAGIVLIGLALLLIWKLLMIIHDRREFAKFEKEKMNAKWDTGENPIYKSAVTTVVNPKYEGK

| Compound | IC50 (α4β1) [nM] | IC50 (human α4β7 integrin) [nM] |
| --- | --- | --- |
| COc1cnn(CCN2CCOCC2)c(=O)c1-c1ccc(C[C@H](NC(=O)[C@H](NC(C)C)C(C)C)C(=O)O)cc1 [Cpd 179] | > 5000 | 721 |
| COc1cnn(C)c(=O)c1-c1ccc(C[C@H](NC(=O)OC23CC4CC(CC(C4)C2)C3)C(=O)O)cc1 [Cpd 180] | > 5000 | 731 |
| COc1cnn(C)c(=O)c1-c1ccc(CC(NC(=O)C(N)C(C)C)C(=O)O)cc1 (stereo not shown) [Cpd 181, 2-(2-Amino-3-methyl-butyrylamino)-3-[4-(5-methoxy-2-methyl-3-oxo-2,3-dihydro-pyridazin-4-yl)-phenyl]-propionic acid] | > 5000 | 750 |
| COC(=O)[C@H](Cc1ccc(-c2c(OC)cnn(C)c2=O)cc1)NC(=O)[C@@H]1C2CCC(CC2)N1C(=O)CCc1ccccc1 [Cpd 182] | > 1000 | 785 |
| COc1cnn(C)c(=O)c1-c1ccc(C[C@H](NC(=O)OC(C)C)C(=O)O)cc1 [Cpd 184] | > 5000 | 813 |
| COc1cnn(C)c(=O)c1-c1ccc(C[C@H](NC(=O)C(C)(C)O)C(=O)O)cc1 [Cpd 185] | > 5000 | 817 |
| COc1cnn(C)c(=O)c1-c1ccc(C[C@H](NC(=O)C2(C(=O)OC(C)(C)C)CCOCC2)C(=O)O)cc1 [Cpd 186] | 1530 | 842 |
| COc1cnn(C)c(=O)c1-c1ccc(C[C@H](NC(=O)c2n[nH]c3ccccc23)C(=O)O)cc1 [Cpd 187] | > 5000 | 865 |
| COc1cc(N)c(Cl)cc1C(=O)N[C@@H](Cc1ccc(-c2c(OC)cnn(C)c2=O)cc1)C(=O)O [Cpd 188] | > 5000 | 922 |
| COc1cnn(C)c(=O)c1-c1ccc(C[C@H](NC(=O)[C@@H](NC2CCCCC2)C(C)C)C(=O)O)cc1 [Cpd 189] | > 5000 | 937 |
| Cn1ncc(N)c(-c2ccc(C[C@H](NC(=O)OC(C)(C)C)C(=O)O)cc2)c1=O [Cpd 190] | > 5000 | 979 |
| COc1cnn(C)c(=O)c1-c1ccc(C[C@H](NC(=O)c2cccnc2O)C(=O)O)cc1 [Cpd 191] | > 5000 | 999 |
| COc1cnn(C)c(=O)c1-c1ccc(C[C@H](NC(=O)c2cccn(C)c2=O)C(=O)O)cc1 [Cpd 193] | > 5000 | 1160 |
| COc1cnn(CCO)c(=O)c1-c1ccc(C[C@@H](CO)NC(=O)c2c(Cl)cccc2Cl)cc1 [Cpd 194] | > 5000 | 1220 |
| Cc1ccc(Oc2cnn(C(C)(C)C)c(=O)c2-c2ccc(C[C@H](NC(=O)c3c(Cl)cccc3Cl)C(=O)O)cc2)cc1 [Cpd 196, (S)-3-[4-(2-tert-Butyl-3-oxo-5-p-tolyloxy-2,3-dihydro-pyridazin-4-yl)-phenyl]-2-(2,6-dichloro-benzoylamino)-propionic acid] | > 5000 | 1290 |
| Nc1cnn(-c2ccccc2)c(=O)c1-c1ccc(C[C@H](NC(=O)c2c(Cl)cccc2Cl)C(=O)O)cc1 [Cpd 197] | > 1000 | 1320 |
| COc1cnn(C)c(=O)c1-c1ccc(C[C@H](NC(=O)C2CCNCC2)C(=O)O)cc1 [Cpd 198] | > 5000 | 1340 |
| COc1cnn(C)c(=O)c1-c1ccc(C[C@H](NC(=O)OCc2cccs2)C(=O)O)cc1 [Cpd 201] | > 5000 | 1440 |
| COc1cnn(C)c(=O)c1-c1ccc(C[C@H](NC(=O)C2CCN(C(=O)OC(C)(C)C)CC2)C(=O)O)cc1 [Cpd 202] | > 5000 | 1480 |

| Compound | IC50 (α4β1) [nM] | IC50 (human α4β7 integrin) [nM] |
| --- | --- | --- |
| COc1cnn(C)c(=O)c1-c1ccc(C[C@H](NC(=O)OCc2c(C)cc(C)cc2C)C(=O)O)cc1 [Cpd 203] | > 5000 | 1780 |
| COc1cnn(C)c(=O)c1-c1ccc(C[C@H](NC(=O)OCc2c(Cl)cccc2Cl)C(=O)O)cc1 [Cpd 204] | > 5000 | 1870 |
| COc1cnn(C)c(=O)c1-c1ccc(C[C@H](NC(=O)c2cnc[nH]2)C(=O)O)cc1 [Cpd 205] | > 5000 | 2320 |
| COc1cnn(C)c(=O)c1-c1ccc(C[C@H](NC(=O)CCC(C)(C)C)C(=O)O)cc1 [Cpd 206] | 3300 | 2550 |
| COc1cnn(C)c(=O)c1-c1ccc(C[C@H](NC(=O)OC2CCCCC2)C(=O)O)cc1 [Cpd 208] | > 5000 | 2760 |
| COc1cnn(C)c(=O)c1-c1ccc(C[C@H](NC(=O)O[C@H](C)c2ccccc2)C(=O)O)cc1 [Cpd 209] | > 5000 | 3140 |
| COc1cnn(CCN2CCOCC2)c(=O)c1-c1ccc(C[C@H](NC(=O)[C@H](N)C(C)C)C(=O)O)cc1 [Cpd 210] | > 5000 | 4650 |
| COc1cnn(C)c(=O)c1-c1ccc(CC(NC(=O)C(C(C)C)n2c(C)cc(C(=O)c3ccccc3)c2C)C(=O)O)cc1 (stereo not shown) [Cpd 211, 2-[2-(3-Benzoyl-2,5-dimethyl-pyrrol-1-yl)-3-methyl-butyrylamino]-[4-(5-methoxy-2-methyl-3-oxo-2,3-dihydro-pyridazin-4-yl)-phenyl]-propionic acid] | > 5000 | 529 |
| COc1cnn(CCO)c(=O)c1-c1ccc(C[C@H](NC(=O)OC(C)(C)C)C(=O)OCCO)cc1 [Cpd 212] | > 5000 | > 5000 |
| COc1cnn(C)c(=O)c1-c1ccc(CC(NC(=O)C(C(C)C)n2c(C)ccc2C)C(=O)O)cc1 (stereo not shown) [Cpd 213] | 2880 | 264 |
| COc1cnn(C)c(=O)c1-c1ccc(CC(NC(=O)C(C(C)C)n2c(C)ccc2C)C(=O)O)cc1 (stereo not shown) [Cpd 214] | 1070 | 23 |
| COc1cnn(C)c(=O)c1-c1ccc(CC(NC(=O)C(C(C)C)n2c(C)ccc2C)C(=O)O)cc1 (stereo not shown) [Cpd 215] | > 5000 | 305 |
| COc1cnn(C)c(=O)c1-c1ccc(C[C@H](NC(=O)C2(O)CC2)C(=O)O)cc1 [Cpd 217] | > 5000 | 640 |
| COc1cnn(C)c(=O)c1-c1ccc(C[C@H](NC(=O)C(C)(C)NC(C)C)C(=O)O)cc1 [Cpd 218] | > 5000 | 239 |
| COc1cnn(C)c(=O)c1-c1ccc(C[C@H](NC(=O)NC2CCCCC2)C(=O)O)cc1 [Cpd 219] | > 5000 | 852 |
| COc1cnn(C)c(=O)c1-c1ccc(C[C@H](NC(=O)C(C)(C)NC2CCC3(CC2)OCCO3)C(=O)O)cc1 [Cpd 220] | > 5000 | 263 |
| CNC(C)(C)C(=O)N[C@@H](Cc1ccc(-c2c(OC)cnn(C)c2=O)cc1)C(=O)O [Cpd 221] | > 5000 | 380 |
| COc1cnn(C)c(=O)c1-c1ccc(C[C@H](NC(=O)C2(NC(=O)OC(C)(C)C)CCCCC2)C(=O)O)cc1 [Cpd 222] | > 5000 | 401 |
| COc1cnn(C)c(=O)c1-c1ccc(C[C@H](NC(=O)C2(NC(=O)OC(C)(C)C)CCCC2)C(=O)O)cc1 [Cpd 223] | > 5000 | 115 |
